Laboratory results as given in the supplement of paper PMC7600603.

Columns and labels:
DLD1 NRF2-WT [1] = details: 72 h; CellTiter-Glo viability
How it was run: (§1)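 Cells grown in DMEM with 10% FBS were isogenic DLD1 colorectal cancer lines, NRF2 wild-type or CRISPR gain-of-function. In 384-well plates they received library compounds at 5 concentrations over a 10,000-fold range for 72 h before CellTiter-Glo readout on a Pherastar FS reader, normalised to vehicle wells and 100-μM positive-control wells. Dose-response fits used a four-parameter logistic model, from which EC50 and drug sensitivity score, a normalised area under the curve, were obtained.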

DLD1 NRF2-GOF [2] = details: 72 h; CellTiter-Glo viability
How it was run: as §1

DLD1 NRF2-WT [3] = assay: drug sensitivity score (DSS) viability (DSS score); higher = more sensitive; extreme values may be limits of the assay; details: 72 h; CellTiter-Glo viability
How it was run: as §1

DLD1 NRF2-GOF [4] = assay: as above; details: 72 h; CellTiter-Glo viability
How it was run: as §1

DLD1 NRF2-WT [5] = assay: drug sensitivity score (DSS) cytotoxicity (DSS score); higher = more toxic; extreme values may be limits of the assay; details: 72 h; CellTox Green cytotoxicity
How it was run: (§2)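 After growth in DMEM with 10% FBS, NRF2 wild-type and CRISPR-edited isogenic DLD1 cells were seeded in 384-well plates and given library compounds at 5 concentrations across a 10,000-fold range. Fluorescence from CellTox Green was taken on a Pherastar FS reader after 72 h and normalised against vehicle wells and 100-μM positive-control wells. From logistic dose-response fits of cytotoxicity came the TC50 and the drug sensitivity score, a normalised area under the curve.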

DLD1 NRF2-GOF [6] = assay: as above; details: 72 h; CellTox Green cytotoxicity
How it was run: as §2

DLD1 NRF2-WT [7] = assay: TC50 cytotoxicity; higher = less toxic; details: 72 h; CellTox Green cytotoxicity
How it was run: as §2

DLD1 NRF2-GOF [8] = assay: TC50 cytotoxicity; higher = less toxic; details: 72 h; CellTox Green cytotoxicity
How it was run: as §2

Compound | EC50 viability (DLD1 NRF2-WT [1]) | EC50 viability (DLD1 NRF2-GOF [2]) | drug sensitivity score (DLD1 NRF2-WT [3]) | drug sensitivity score (DLD1 NRF2-GOF [4]) | drug sensitivity score (DLD1 NRF2-WT [5]) | drug sensitivity score (DLD1 NRF2-GOF [6]) | TC50 cytotoxicity (DLD1 NRF2-WT [7]) | TC50 cytotoxicity (DLD1 NRF2-GOF [8])
Nc1ccn([C@@H]2O[C@H](CO)[C@@H](O)C2(F)F)c(=O)n1 [Gemcitabine] | 0.0267 µM | 0.0284 µM | 11.4 | 10.7 | 0 | 0 | > 1 µM | > 1 µM
NC(=O)NO [Hydroxyurea] | 364 µM | 157 µM | 1.7 | 5.8 | 0 | 0 | > 1000 µM | > 1000 µM
Cn1cc(C2=C(c3cn(C4CCN(Cc5ccccn5)CC4)c4ccccc34)C(=O)NC2=O)c2ccccc21 [Enzastaurin] | > 10 µM | > 10 µM | 0 | 0 | 0 | 0 | > 10 µM | > 10 µM
O=C(NC1CCNCC1)c1n[nH]cc1NC(=O)c1c(Cl)cccc1Cl [AT7519] | 0.169 µM | 0.256 µM | 20 | 17.1 | 0 | 0 | > 10 µM | > 10 µM
CCn1cc(-c2ccnc3[nH]c(-c4cccc(CN(C)C)c4)cc23)c(-c2ccc(NC(=O)N(C)C)cc2)n1 | 0.172 µM | 0.0452 µM | 2.8 | 4.4 | 0 | 1.6 | > 1 µM | > 1 µM
O=C1CCc2c(Oc3ccc4c(c3)[C@@H]3[C@H](O4)[C@H]3c3nc4cc(C(F)(F)F)ccc4[nH]3)ccnc2N1 [BGB-283] | 1.62 µM | 4.13 µM | 5 | 1.5 | 0 | 0 | > 10 µM | > 10 µM
COCC1(CO)C(=O)C2CCN1CC2 (centres undefined) [APR-246] | > 10 µM | > 10 µM | 4.5 | 0 | 0 | 0 | > 10 µM | > 10 µM
Cc1ccc(NS(=O)(=O)c2cccc(C#N)c2)c2[nH]cc(C#N)c12 [E7820] | 0.531 µM | 0.202 µM | 15.3 | 22.9 | 0 | 0 | > 50 µM | > 50 µM
CCc1cnn2c(NCc3ccc[n+]([O-])c3)cc(N3CCCC[C@H]3CCO)nc12 [Dinaciclib] | 0.0034 µM | 0.0096 µM | 27.5 | 21 | 3.3 | 0 | > 1 µM | > 1 µM
O=C(O)c1ccc(-c2c[nH]c3ncc(-c4ccccc4)cc23)cc1C1CCCC1 | 0.0381 µM | 0.908 µM | 12.1 | 6.6 | 0.4 | 2 | > 10 µM | 3.47 µM
Nc1nc(F)nc2c1ncn2[C@@H]1O[C@H](CO)[C@@H](O)[C@@H]1O [Fludarabine] | > 10 µM | > 10 µM | 0.1 | 0 | 0 | 0 | > 10 µM | > 10 µM
O=C(Nc1ccncc1)C(=O)c1cn(Cc2ccc(Cl)cc2)c2ccccc12 [Indibulin] | 0.283 µM | 0.381 µM | 8.6 | 7.8 | 0.4 | 0 | > 10 µM | > 10 µM
CCn1c(C(=O)N(C2CC2)C2CC2)cc2c3c(ncn3C)c(Nc3cc(C)n(C)n3)nc21 | 0.217 µM | 1.17 µM | 7.2 | 7.1 | 0 | 0 | > 10 µM | > 10 µM
CN[C@@H](C)C(=O)N[C@H]1CN(C(=O)CC(C)C)CC[C@H]2CC[C@@H](C(=O)NC(c3ccccc3)c3ccccc3)N2C1=O [AT-406] | > 10 µM | 0.885 µM | 0 | 2.6 | 0 | 0 | > 10 µM | > 10 µM
Cc1cccc(-c2[nH]c(CNc3ccccc3F)nc2-c2ccc3ncnn3c2)n1 [TEW-7197] | > 2.5 µM | > 2.5 µM | 0 | 1.7 | 0 | 0 | > 2.5 µM | > 2.5 µM
COc1cccc2c1c(O)c(C(=O)N(C)c1ccc(C(F)(F)F)cc1)c(=O)n2C [Tasquinimod] | > 10 µM | > 10 µM | 1.8 | 1.2 | 0 | 0 | > 10 µM | > 10 µM
N#CCNC(=O)c1ccc(-c2ccnc(Nc3ccc(N4CCOCC4)cc3)n2)cc1 [Momelotinib] | 2.8 µM | 3.25 µM | 4.1 | 2.8 | 0.2 | 0.1 | > 10 µM | > 10 µM
CC(=O)N(O)CCCCCNC(=O)CCC(=O)N(O)CCCCCNC(=O)CCC(=O)N(O)CCCCCN [Deferoxamine] | 3.25 µM | 2.01 µM | 4.8 | 7 | 0 | 0 | > 10 µM | > 10 µM
Cc1ncc(Cl)cc1NCc1ccc(C(=O)N[C@@H](CC2CCCC2)C(=O)NC2CC2)s1 | 0.401 µM | > 5 µM | 4 | 0 | 0 | 0 | > 5 µM | > 5 µM
Cc1[nH]c2ccccc2c1CCNCc1ccc(/C=C/C(=O)NO)cc1 [Panobinostat] | 0.0649 µM | 0.0701 µM | 13.3 | 11.2 | 6.6 | 1.1 | 0.124 µM | > 1 µM
CN(C)C[C@@H]1CCn2cc(c3ccccc32)C2=C(C(=O)NC2=O)c2cn(c3ccccc23)CCO1 [Ruboxistaurin] | 2.08 µM | 2 µM | 5.1 | 5 | 0 | 0.2 | > 10 µM | > 10 µM
Nc1ncnc2c1nc(Cl)n2[C@@H]1O[C@H](CO)[C@@H](O)[C@H]1O [8-chloro-adenosine] | 1.15 µM | 1.31 µM | 16.6 | 15.2 | 0 | 0.2 | > 50 µM | > 50 µM
NC1(C(=O)N[C@@H](CCO)c2ccc(Cl)cc2)CCN(c2ncnc3[nH]ccc23)CC1 [AZD-5363] | 0.687 µM | 1.51 µM | 6.1 | 5.2 | 0 | 0 | > 10 µM | > 10 µM
c1cn2cc(-c3ccc4cn[nH]c4c3)nc(Nc3ccc(N4CCOCC4)cc3)c2n1 [Entospletinib] | > 5 µM | > 5 µM | 0 | 0 | 0 | 0 | > 5 µM | > 5 µM
C=CC[C@@H]1/C=C(\C)C[C@H](C)C[C@H](OC)[C@H]2O[C@@](O)(C(=O)C(=O)N3CCCC[C@H]3C(=O)O[C@H](/C(C)=C/[C@@H]3CC[C@@H](O)[C@H](OC)C3)[C@H](C)[C@@H](O)CC1=O)[C@H](C)C[C@@H]2OC [Tacrolimus] | 0.933 µM | 0.844 µM | 4.5 | 5 | 0 | 0 | > 10 µM | > 10 µM
NC(=O)N1CCC(CC(=O)N2CCC([C@H]3c4ncc(Br)cc4CCc4cc(Cl)cc(Br)c43)CC2)CC1 [Lonafarnib] | 10.5 µM | 14.2 µM | 11 | 9.7 | 6.3 | 6.7 | 23.5 µM | 24.2 µM

Second part, led by results:

EC50 viability (DLD1 NRF2-WT [1]) | EC50 viability (DLD1 NRF2-GOF [2]) | Compound | drug sensitivity score (DLD1 NRF2-WT [3]) | drug sensitivity score (DLD1 NRF2-GOF [4]) | drug sensitivity score (DLD1 NRF2-WT [5]) | drug sensitivity score (DLD1 NRF2-GOF [6]) | TC50 cytotoxicity (DLD1 NRF2-WT [7]) | TC50 cytotoxicity (DLD1 NRF2-GOF [8])
0.0256 µM | 0.145 µM | Nc1nc(Cl)nc2c1ncn2[C@H]1C[C@H](O)[C@@H](CO)O1 [Cladribine] | 10.4 | 5.5 | 0 | 0 | > 1 µM | > 1 µM
0.001 µM | 0.435 µM | NC[C@@](O)(c1ccc(Cl)cc1)c1ccc(-c2cn[nH]c2)cc1 | 10.8 | 10.6 | 0 | 0 | > 10 µM | > 10 µM
0.168 µM | 0.139 µM | COc1cccc2c1C(=O)c1c(O)c3c(c(O)c1C2=O)C[C@@](O)(C(=O)CO)C[C@@H]3O[C@H]1C[C@H](N)[C@H](O)[C@H](C)O1 [Doxorubicin] | 8.1 | 9.2 | 0 | 0 | > 1 µM | > 1 µM
0.255 µM | 0.259 µM | O=c1[nH]c(=O)n([C@H]2C[C@H](O)[C@@H](CO)O2)cc1F [Floxuridine] | 12.2 | 11.8 | 0 | 0 | > 10 µM | > 10 µM
0.511 µM | 0.855 µM | C1=N/C2=N/c3ccc(OCCN4CCCC4)c(c3)COC/C=C/COCc3cccc(c3)C(=C1)N2 [Pacritinib] | 15.1 | 12.6 | 8.1 | 8.6 | 1.98 µM | 1.8 µM
1.94 µM | 1.6 µM | CNC(=O)c1ccccc1Nc1cc(Nc2ccc(N3CCOCC3)cc2OC)ncc1C(F)(F)F [VS-4718] | 4.3 | 4.7 | 0 | 0 | > 10 µM | > 10 µM
0.315 µM | 1.49 µM | CC(=O)c1c(C)c2cnc(Nc3ccc(N4CCNCC4)cn3)nc2n(C2CCCC2)c1=O [Palbociclib] | 12.3 | 6.7 | 0.2 | 0 | > 10 µM | > 10 µM
> 10 µM | > 10 µM | COc1ccc(COc2cc3oc(=O)c4cc(C(C)O)ccc4c3cc2OC)cc1 (centres undefined) [Palomid-529] | 0 | 0.6 | 0 | 0 | > 10 µM | > 10 µM
> 10 µM | > 10 µM | Nc1ccccc1NC(=O)c1ccc(CNC(=O)OCc2cccnc2)cc1 [Entinostat] | 0 | 0 | 0 | 0 | > 10 µM | > 10 µM
1.68 µM | 1.11 µM | NCCNc1ccc(NCCN)c2c1C(=O)c1ccncc1C2=O [Pixantrone] | 4 | 4.9 | 0 | 0 | > 10 µM | > 10 µM
5.14 µM | 4.09 µM | O=C(NCc1ccncc1)C12CC3CC(C1)CC(c1ccc(Cl)cc1)(C3)C2 | 8.7 | 9 | 0 | 0.3 | > 50 µM | > 50 µM
0.0385 µM | 0.093 µM | COc1cc(Nc2ncc(F)c(Nc3ccc4c(n3)N(COP(=O)(O)O)C(=O)C(C)(C)O4)n2)cc(OC)c1OC [Fostamatinib] | 6.2 | 7.4 | 0 | 0.2 | > 2.5 µM | > 2.5 µM
0.0522 µM | > 1 µM | NC1(c2ccc(-c3nc4ccn5c(=O)[nH]nc5c4cc3-c3ccccc3)cc2)CCC1 [MK-2206] | 4.3 | 0.7 | 0 | 0 | > 1 µM | > 1 µM
> 10 µM | > 10 µM | C[C@@H](C(=O)O)c1ccc(-c2ccccc2)c(F)c1 [Tarenflurbil] | 0 | 0 | 0 | 0 | > 10 µM | > 10 µM
0.0355 µM | 0.0658 µM | CCN(CCO)CCCOc1ccc2c(Nc3cc(CC(=O)Nc4cccc(F)c4)[nH]n3)ncnc2c1 [AZD1152-HQPA] | 6.6 | 6.7 | 5.5 | 7.7 | 0.0534 µM | 0.0568 µM
> 10 µM | > 10 µM | CC[C@@](C)(Nc1ccnc(-c2c[nH]c3ncccc23)n1)C(=O)NCC(F)(F)F [Decernotinib] | 0 | 0 | 0 | 0 | > 10 µM | > 10 µM
0.496 µM | 0.718 µM | CNc1ncc2cc(-c3cc(NC(=O)NCCC(C)(C)C)c(F)cc3C)c(C)nc2n1 | 9.9 | 6.4 | 0 | 0 | > 10 µM | > 10 µM
